Experiments:
Test in all cases: Eurofins kinase panel
Assay type in all cases: biochemical
Details in all cases: read-out: Inhibition rate (%)
[1] = molecular target: T1, PDGFRβ(h) (Homo sapiens, UniProt P09619)
T1 construct: purchased Eurofins (KinaseProfiler)

[2] = molecular target: T2, cKit(V560G)(h) (Homo sapiens, UniProt P10721, V560G)
T2 construct: purchased Eurofins (KinaseProfiler)

[3] = molecular target: T3, BMPR2(h) (Homo sapiens, UniProt Q13873)
T3 construct: purchased Eurofins (KinaseProfiler)
T3 sequence (Q13873 27-1038): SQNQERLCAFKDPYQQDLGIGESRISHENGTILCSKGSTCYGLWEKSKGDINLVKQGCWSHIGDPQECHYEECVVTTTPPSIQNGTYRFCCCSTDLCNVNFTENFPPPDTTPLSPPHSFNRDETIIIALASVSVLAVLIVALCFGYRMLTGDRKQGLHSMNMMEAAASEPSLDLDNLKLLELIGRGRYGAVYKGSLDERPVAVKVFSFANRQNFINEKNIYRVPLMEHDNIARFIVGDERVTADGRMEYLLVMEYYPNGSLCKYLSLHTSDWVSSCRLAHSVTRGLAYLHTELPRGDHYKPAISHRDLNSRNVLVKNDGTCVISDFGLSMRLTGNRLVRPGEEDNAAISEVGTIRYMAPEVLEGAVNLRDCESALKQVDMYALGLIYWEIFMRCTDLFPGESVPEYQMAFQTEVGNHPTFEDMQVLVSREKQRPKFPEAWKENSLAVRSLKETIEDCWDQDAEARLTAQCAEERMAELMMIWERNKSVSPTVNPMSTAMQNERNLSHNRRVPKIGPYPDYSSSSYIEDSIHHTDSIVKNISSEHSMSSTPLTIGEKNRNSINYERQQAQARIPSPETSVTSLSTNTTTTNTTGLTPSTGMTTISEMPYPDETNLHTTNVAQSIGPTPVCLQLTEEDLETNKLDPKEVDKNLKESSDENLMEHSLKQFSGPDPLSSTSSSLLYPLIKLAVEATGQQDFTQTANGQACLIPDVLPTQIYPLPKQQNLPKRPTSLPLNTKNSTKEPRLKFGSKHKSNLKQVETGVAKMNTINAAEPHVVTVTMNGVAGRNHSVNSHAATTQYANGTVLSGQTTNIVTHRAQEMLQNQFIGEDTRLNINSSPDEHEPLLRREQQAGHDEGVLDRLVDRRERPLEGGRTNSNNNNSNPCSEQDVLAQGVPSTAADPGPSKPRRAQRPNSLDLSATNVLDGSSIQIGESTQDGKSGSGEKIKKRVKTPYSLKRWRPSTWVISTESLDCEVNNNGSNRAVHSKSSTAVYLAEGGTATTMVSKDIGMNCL

[4] = molecular target: T4, STK33(h) (Homo sapiens, UniProt Q9BYT3)
T4 construct: purchased Eurofins (KinaseProfiler)

[5] = molecular target: T5, ROCK-I(h) (Homo sapiens, UniProt Q13464)
T5 construct: purchased Eurofins (KinaseProfiler)

[6] = molecular target: T6, MLK1(h) (Homo sapiens, UniProt P80192)
T6 construct: purchased Eurofins (KinaseProfiler)

[7] = molecular target: T7, HIPK2(h) (Homo sapiens, UniProt Q9H2X6)
T7 construct: purchased Eurofins (KinaseProfiler)

[8] = molecular target: T8, ZAK(h) (Homo sapiens, UniProt Q9NYL2)
T8 construct: purchased Eurofins (KinaseProfiler)

[9] = molecular target: T9, Met(h) (Homo sapiens, UniProt P08581)
T9 construct: purchased Eurofins (KinaseProfiler)

[10] = molecular target: T10, HPK1(h) (Homo sapiens, UniProt Q92918)
T10 construct: purchased Eurofins (KinaseProfiler)

[11] = molecular target: T11, LTK(h) (Homo sapiens, UniProt P29376)
T11 construct: purchased Eurofins (KinaseProfiler)

[12] = molecular target: T12, CDK5/p25(h) (Homo sapiens, UniProt Q00535)
T12 construct: purchased Eurofins (KinaseProfiler)

[13] = molecular target: T13, PAR-1Bα(h) (Homo sapiens, UniProt Q7KZI7)
T13 construct: purchased Eurofins (KinaseProfiler)

[14] = molecular target: T14, WNK1(h) (Homo sapiens, UniProt Q9H4A3)
T14 construct: purchased Eurofins (KinaseProfiler)

[15] = molecular target: T15, CHK2(I157T)(h) (Homo sapiens, UniProt O96017, I157T)
T15 construct: purchased Eurofins (KinaseProfiler)

[16] = molecular target: T16, cKit(D816H)(h) (Homo sapiens, UniProt P10721, D816H)
T16 construct: purchased Eurofins (KinaseProfiler)

[17] = molecular target: T17, STK32C(h) (Homo sapiens, UniProt Q86UX6)
T17 construct: purchased Eurofins (KinaseProfiler)

[18] = molecular target: T18, IR(h) (Homo sapiens, UniProt P06213)
T18 construct: purchased Eurofins (KinaseProfiler)

T13 sequence (Q7KZI7 1-725 isoform Q7KZI7-4): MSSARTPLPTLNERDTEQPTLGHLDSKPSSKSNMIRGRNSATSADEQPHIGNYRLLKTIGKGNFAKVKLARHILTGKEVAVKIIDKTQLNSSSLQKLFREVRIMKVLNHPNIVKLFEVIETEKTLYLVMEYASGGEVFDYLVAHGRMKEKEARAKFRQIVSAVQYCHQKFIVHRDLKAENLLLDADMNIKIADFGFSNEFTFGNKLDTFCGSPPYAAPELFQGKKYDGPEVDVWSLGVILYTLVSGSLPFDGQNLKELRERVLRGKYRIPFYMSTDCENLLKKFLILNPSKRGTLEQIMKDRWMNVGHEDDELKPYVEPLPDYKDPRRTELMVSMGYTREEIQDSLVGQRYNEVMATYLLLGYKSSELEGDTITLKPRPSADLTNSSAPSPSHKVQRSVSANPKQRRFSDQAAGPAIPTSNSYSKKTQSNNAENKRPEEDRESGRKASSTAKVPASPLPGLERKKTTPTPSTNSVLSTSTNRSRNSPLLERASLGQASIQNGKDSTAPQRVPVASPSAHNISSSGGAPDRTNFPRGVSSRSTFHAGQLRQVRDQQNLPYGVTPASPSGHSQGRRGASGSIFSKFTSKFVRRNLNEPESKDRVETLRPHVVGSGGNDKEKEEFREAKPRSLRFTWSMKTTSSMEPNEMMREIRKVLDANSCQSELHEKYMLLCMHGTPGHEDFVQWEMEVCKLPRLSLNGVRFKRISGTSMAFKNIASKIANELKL
T8 sequence (Q9NYL2 whole entry): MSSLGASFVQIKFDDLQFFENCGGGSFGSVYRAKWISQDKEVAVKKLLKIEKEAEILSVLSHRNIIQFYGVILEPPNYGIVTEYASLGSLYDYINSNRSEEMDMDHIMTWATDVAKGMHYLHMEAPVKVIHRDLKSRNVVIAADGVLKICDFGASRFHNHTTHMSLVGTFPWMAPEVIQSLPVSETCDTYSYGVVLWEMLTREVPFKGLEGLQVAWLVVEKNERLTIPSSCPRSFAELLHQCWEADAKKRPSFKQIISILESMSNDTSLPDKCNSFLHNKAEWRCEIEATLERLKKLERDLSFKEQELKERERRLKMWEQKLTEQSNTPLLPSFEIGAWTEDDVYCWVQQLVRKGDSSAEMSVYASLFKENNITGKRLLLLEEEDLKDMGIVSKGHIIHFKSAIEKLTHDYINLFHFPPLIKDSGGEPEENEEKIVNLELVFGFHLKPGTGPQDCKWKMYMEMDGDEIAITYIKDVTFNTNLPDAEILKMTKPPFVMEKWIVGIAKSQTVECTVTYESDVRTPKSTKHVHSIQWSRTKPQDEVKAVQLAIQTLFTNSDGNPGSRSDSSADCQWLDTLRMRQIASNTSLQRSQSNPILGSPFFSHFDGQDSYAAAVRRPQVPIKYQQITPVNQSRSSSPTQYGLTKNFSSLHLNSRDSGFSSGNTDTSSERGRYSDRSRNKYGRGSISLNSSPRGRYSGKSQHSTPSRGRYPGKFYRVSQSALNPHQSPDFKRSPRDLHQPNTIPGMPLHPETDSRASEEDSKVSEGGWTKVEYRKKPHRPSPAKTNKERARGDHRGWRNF
T9 sequence (P08581 25-1390): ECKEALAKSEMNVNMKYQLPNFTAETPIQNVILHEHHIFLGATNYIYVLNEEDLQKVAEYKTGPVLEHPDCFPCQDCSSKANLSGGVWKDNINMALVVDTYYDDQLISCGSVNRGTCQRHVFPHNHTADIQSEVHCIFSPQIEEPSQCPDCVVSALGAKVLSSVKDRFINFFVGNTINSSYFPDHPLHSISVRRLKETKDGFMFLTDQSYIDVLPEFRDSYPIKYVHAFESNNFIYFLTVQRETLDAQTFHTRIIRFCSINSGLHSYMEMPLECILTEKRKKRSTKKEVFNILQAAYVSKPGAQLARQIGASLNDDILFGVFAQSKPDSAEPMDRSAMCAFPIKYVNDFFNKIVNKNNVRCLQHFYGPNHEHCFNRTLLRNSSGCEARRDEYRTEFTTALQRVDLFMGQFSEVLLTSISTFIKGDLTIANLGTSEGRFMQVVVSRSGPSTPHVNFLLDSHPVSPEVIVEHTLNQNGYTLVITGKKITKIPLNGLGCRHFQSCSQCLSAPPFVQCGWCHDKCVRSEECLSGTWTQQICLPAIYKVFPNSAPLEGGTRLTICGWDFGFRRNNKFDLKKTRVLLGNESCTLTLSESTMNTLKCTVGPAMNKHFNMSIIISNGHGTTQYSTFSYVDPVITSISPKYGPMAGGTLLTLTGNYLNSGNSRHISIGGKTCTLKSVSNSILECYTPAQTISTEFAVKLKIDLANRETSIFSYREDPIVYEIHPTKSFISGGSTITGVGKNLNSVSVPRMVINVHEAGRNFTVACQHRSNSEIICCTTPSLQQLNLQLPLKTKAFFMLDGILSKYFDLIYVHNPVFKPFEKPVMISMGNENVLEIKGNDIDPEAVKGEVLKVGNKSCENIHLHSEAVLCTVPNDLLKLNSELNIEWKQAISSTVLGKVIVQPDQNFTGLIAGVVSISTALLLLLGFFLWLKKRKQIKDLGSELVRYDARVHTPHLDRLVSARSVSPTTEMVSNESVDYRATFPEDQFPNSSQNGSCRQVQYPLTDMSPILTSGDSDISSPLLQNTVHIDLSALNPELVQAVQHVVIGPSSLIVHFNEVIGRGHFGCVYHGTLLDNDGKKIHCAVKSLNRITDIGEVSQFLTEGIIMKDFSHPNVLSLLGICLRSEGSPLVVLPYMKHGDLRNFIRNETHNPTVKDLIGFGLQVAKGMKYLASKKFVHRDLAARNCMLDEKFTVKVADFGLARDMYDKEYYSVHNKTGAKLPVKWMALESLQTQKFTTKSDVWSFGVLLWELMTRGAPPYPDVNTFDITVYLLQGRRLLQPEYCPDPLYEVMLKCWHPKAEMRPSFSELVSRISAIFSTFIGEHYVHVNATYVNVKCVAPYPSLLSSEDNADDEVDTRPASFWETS
T10 sequence (Q92918 whole entry): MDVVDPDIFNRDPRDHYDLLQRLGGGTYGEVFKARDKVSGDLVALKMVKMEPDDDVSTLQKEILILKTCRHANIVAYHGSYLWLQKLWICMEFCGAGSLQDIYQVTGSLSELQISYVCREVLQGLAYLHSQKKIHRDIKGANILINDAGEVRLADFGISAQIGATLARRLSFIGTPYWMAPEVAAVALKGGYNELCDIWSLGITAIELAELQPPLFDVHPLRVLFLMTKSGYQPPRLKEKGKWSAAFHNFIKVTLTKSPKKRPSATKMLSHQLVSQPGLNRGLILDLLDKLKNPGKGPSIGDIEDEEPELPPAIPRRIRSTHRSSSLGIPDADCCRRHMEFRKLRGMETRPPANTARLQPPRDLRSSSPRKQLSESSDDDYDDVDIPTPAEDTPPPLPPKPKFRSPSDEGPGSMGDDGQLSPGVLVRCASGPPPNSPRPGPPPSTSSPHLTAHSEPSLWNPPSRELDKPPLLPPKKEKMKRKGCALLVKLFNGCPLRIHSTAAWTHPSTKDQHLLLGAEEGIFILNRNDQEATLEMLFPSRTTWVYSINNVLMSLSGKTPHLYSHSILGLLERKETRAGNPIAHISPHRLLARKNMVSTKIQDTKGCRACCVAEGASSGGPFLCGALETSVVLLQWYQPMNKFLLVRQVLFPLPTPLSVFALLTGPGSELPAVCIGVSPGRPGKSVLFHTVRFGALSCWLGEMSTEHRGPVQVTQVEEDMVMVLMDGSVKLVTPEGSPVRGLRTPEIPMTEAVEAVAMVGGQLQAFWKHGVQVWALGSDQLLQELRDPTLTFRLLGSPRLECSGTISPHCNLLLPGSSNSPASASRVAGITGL
T17 sequence (Q86UX6 whole entry): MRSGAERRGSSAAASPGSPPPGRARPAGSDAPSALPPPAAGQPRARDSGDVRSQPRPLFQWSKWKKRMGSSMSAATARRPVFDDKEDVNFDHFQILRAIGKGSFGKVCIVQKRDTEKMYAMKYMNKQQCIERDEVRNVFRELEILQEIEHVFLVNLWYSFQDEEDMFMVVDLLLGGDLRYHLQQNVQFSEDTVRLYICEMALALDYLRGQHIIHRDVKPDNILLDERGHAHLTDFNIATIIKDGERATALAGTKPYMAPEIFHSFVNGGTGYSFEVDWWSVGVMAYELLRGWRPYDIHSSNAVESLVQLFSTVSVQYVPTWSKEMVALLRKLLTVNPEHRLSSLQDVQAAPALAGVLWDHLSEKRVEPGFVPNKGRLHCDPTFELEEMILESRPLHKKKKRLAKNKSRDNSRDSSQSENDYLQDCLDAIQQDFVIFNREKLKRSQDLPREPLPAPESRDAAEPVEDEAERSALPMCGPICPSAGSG
T11 sequence (P29376 17-864): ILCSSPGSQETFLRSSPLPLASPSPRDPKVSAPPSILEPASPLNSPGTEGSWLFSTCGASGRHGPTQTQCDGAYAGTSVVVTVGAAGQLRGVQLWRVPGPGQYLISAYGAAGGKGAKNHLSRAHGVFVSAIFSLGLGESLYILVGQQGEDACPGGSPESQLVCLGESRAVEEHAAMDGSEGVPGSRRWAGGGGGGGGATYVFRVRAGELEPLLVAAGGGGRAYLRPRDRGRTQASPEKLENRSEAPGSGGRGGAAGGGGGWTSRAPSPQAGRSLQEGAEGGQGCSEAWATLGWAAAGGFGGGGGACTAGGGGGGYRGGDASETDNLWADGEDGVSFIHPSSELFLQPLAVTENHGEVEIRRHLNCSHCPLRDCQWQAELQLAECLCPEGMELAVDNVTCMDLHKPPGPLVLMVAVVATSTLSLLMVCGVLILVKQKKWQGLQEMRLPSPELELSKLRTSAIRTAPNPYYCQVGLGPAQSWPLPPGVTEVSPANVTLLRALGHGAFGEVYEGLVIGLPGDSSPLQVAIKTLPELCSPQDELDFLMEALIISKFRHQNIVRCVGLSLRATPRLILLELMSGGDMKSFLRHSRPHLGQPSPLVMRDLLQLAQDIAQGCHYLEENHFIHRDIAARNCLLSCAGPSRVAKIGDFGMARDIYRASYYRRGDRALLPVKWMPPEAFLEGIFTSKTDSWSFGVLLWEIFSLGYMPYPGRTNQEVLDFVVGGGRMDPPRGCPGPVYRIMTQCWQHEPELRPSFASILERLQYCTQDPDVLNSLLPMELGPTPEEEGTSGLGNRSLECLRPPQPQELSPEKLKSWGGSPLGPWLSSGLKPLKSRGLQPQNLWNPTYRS

Work on `COc1cc(OC)c(Cl)c(-c2ccc3c(NC(=O)c4ccc(N5CCNC(C)(C)C5)cc4)n[nH]c3n2)c1Cl` [3D185] yielded an inhibition at 0.01 µM ([1]; 10 nM) of 1%, an inhibition at 0.1 µM ([1]; 100 nM) of -1% and an inhibition at 1 µM ([1]; 1000 nM) of 17%. The inhibition at 0.01 µM ([2]; 10 nM) was 10%, the inhibition at 0.1 µM ([2]; 100 nM) was 38% and the inhibition at 1 µM ([2]; 1000 nM) was 71%. The inhibition at 0.01 µM ([3]; 10 nM) was 5%, the inhibition at 0.1 µM ([3]; 100 nM) was -2% and the inhibition at 1 µM ([3]; 1000 nM) was 4%. The inhibition at 0.01 µM ([4]; 10 nM) was 3%, the inhibition at 0.1 µM ([4]; 100 nM) was 9% and the inhibition at 1 µM ([4]; 1000 nM) was 13%. For the same compound, the inhibition at 0.01 µM ([5]; 10 nM) was -2%, the inhibition at 0.1 µM ([5]; 100 nM) was -12% and the inhibition at 1 µM ([5]; 1000 nM) was -3%. The inhibition at 0.01 µM ([6]; 10 nM) was -9%, the inhibition at 0.1 µM ([6]; 100 nM) was -1% and the inhibition at 1 µM ([6]; 1000 nM) was 26%. For the same compound, the inhibition at 0.01 µM ([7]; 10 nM) was 3%, the inhibition at 0.1 µM ([7]; 100 nM) was 6% and the inhibition at 1 µM ([7]; 1000 nM) was -10%. The inhibition at 0.01 µM ([8]; 10 nM) was 1%, the inhibition at 0.1 µM ([8]; 100 nM) was -2% and the inhibition at 1 µM ([8]; 1000 nM) was 8%. It also gave an inhibition at 0.01 µM ([9]; 10 nM) of 16%, an inhibition at 0.1 µM ([9]; 100 nM) of 15% and an inhibition at 1 µM ([9]; 1000 nM) of 55%. The inhibition at 0.01 µM ([10]; 10 nM) was 17%, the inhibition at 0.1 µM ([10]; 100 nM) was 65% and the inhibition at 1 µM ([10]; 1000 nM) was 94%. The inhibition at 0.01 µM ([11]; 10 nM) was -8%, the inhibition at 0.1 µM ([11]; 100 nM) was 1% and the inhibition at 1 µM ([11]; 1000 nM) was 37%. For the same compound, the inhibition at 0.01 µM ([12]; 10 nM) was 10%, the inhibition at 0.1 µM ([12]; 100 nM) was 4% and the inhibition at 1 µM ([12]; 1000 nM) was 3%. It also gave an inhibition at 0.01 µM ([13]; 10 nM) of -4%, an inhibition at 0.1 µM ([13]; 100 nM) of -3% and an inhibition at 1 µM ([13]; 1000 nM) of 2%. The inhibition at 0.01 µM ([14]; 10 nM) was 3%, the inhibition at 0.1 µM ([14]; 100 nM) was 2% and the inhibition at 1 µM ([14]; 1000 nM) was 16%. It also gave an inhibition at 0.01 µM ([15]; 10 nM) of -6%, an inhibition at 0.1 µM ([15]; 100 nM) of -5% and an inhibition at 1 µM ([15]; 1000 nM) of -1%. The inhibition at 0.01 µM ([16]; 10 nM) was 22%, the inhibition at 0.1 µM ([16]; 100 nM) was 27% and the inhibition at 1 µM ([16]; 1000 nM) was 44%. For the same compound, the inhibition at 0.01 µM ([17]; 10 nM) was 11%, the inhibition at 0.1 µM ([17]; 100 nM) was 8% and the inhibition at 1 µM ([17]; 1000 nM) was 7%. It also gave an inhibition at 0.01 µM ([18]; 10 nM) of 16%, an inhibition at 0.1 µM ([18]; 100 nM) of 32% and an inhibition at 1 µM ([18]; 1000 nM) of 94%.

Source: PMC6704710, “Preclinical evaluation of 3D185, a novel potent inhibitor of FGFR1/2/3 and CSF-1R, in FGFR-dependent and macrophage-dominant cancer models” (Journal of Experimental & Clinical Cancer Research : CR, 2019)
